Like-named read-outs stand apart in the source and are kept apart here.
How the values were obtained:
[1] = tested on: purified secondary alcohol dehydrogenase; experiment: substrate specificity, electron acceptor and stoichiometry of purified yeast SADH; conditions: for oxidation by the purified yeast secondary alcohol dehydrogenase: examined spectrophotometrically
[2] = tested on: cell suspensions of C1-utilizers; experiment: studies on production of 2-butanone from 2-butanol by cell suspensions of the strains tested; type: cell-based; conditions: for inhibition of production of 2-butanone from 2-butanol by cell suspensions: strains tested
Text: The following summarizes tests conducted on the optimal conditions for the production of methyl ketones from C3 -C6 sec. alcohols.
The substrate specificity for the oxidation of C3 -C6 secondary alcohols by the strains of C1 -utilizers was studied.

[3] = tested on: purified secondary alcohol dehydrogenase (SADH); experiment: inhibition of purified SADH by metal-chelating agents, thioreagents, metals; type: biochemical, Pseudomonas sp. ATCC 21439
Procedure: Secondary alcohol dehydrogenase (SADH) from an obligate methanol utilizer, Pseudomonas sp. ATCC 21439 was purified as follows. […] 0.05 M sodium phosphate buffer, pH 7.0 with 0.5 mM dithiothretol (buffer A) and were disrupted sonically (5×1 min.). The crude extract was separated by centrifugation. The crude extract was heat-treated at 50° C. in a water bath for 10 minutes. The resulting precipitate was removed by centrifugation. To the supernatant solution, 25 ml of protamine sulfate solution (2% solution in 0.1 M Tris base) was added dropwise with continuous stirring. After standing for 30 minutes, the extract was centrifuged. The supernatant solution was fractionated with solid ammonium sulfate. […] This DEAE-cellulose eluate was concentrated by ammonium sulfate fractionation. Material precipitating between 30 and 50% ammonium sulfate saturation was collected by centrifugation and dialyzed overnight against A. This fraction was further washed and filtered through an Amicon unit with XM 50 membrane. The concentrated fraction (6 ml) inside the Amicon unit was applied to an Affi-Gel Blue column (0.8 cm×18 cm) which had been equilibrated with buffer A for affinity chromatography. The column was washed overnight with buffer A (0.18 ml./min.) and then was eluted with buffer A containing 5 mM NAD. Each 1 ml. fraction was collected.
The purified secondary alcohol dehydrogenase enzyme (SADH) may be used directly for converting C3 -C6 secondary alcohols to the corresponding methyl ketones by the procedures described above; however, a source of NAD^+ must be added to the reaction medium. One can determine the NAD-linked secondary alcohol dehydrogenase activity with a fluorescence spectrophotometer (Perkin Elmer, Model MPF 44A) by following the formation of reduced NAD (Ex 340 nm, Em 460 nm). The assay system (3 ml.) will typically contain: sodium phosphate buffer pH 7.0, 150 μmol; NAD 1.0 μmol; a given amount of enzyme preparation; and 20 μmol secondary alcohol. The reaction is started by the addition of secondary alcohol. One unit of SADH enzyme activity represents the reduction of one nmole NAD per minute.
The effect of metal-chelating agents and thioreagents on the activity of the purified SADH enzyme were studied. […] The possibility of ethanol or n-propanol as an inhibitor was studied.

[4] = tested on: cell-free particulate fractions of methane-grown methylotrophs; experiment: inhibitors and electron donors of n-alkane conversion to sec. alcohols by cell-free particulate fractions; type: biochemical
Text: The conditions for preparing the cell suspensions or the cell-free particulate fractions from methane-grown methylotroph microorganisms is the same as described above.

[5] = tested on: Methylococcus capsulatus CRL M1 NRRL B-11,219; experiment: conversion of n-alkanes to oxidation products by cell suspensions (Table XVIII); type: cell-based; conditions: methane-grown cell suspension, pH 7.0
Procedure: (§1) ^(a) Cell-suspensions of methanegrown methylotroph microorganisms
(§2) indicated in 0.15 M phosphate buffer, pH 7.0 incubated in the alkanes as
(§3) indicated at 3° C. The oxidation products were determined by g.l.c

[6] = tested on: Methylosinus trichosporium OB3b NRRL B-11,196; experiment: as above; type: cell-based; conditions: methane-grown cell suspension, pH 7.0
Procedure: as §1, §2, §3

[7] = tested on: cell-free SADH system; experiment: cofactor requirement of the cell-free SADH systems; type: biochemical; conditions: cell-free systems tested
Procedure: To prepare the cell-free secondary alcohol dehydrogenase (SADH) system, the washed cells were disrupted with a Wave Energy Ultrasonic Oscillator, Model W201 (Wave Energy System, Inc., Newtown, Pa.) and centrifuged at 20,000×g. for 30 minutes. […] The enzyme activity was measured with a fluorescence spectrophotometer (Perkin Elmer, Model MPF 44A) by following the formation of reduced NAD (EX 340 nm, Em 460 nm). The formation of reduced NAD was also followed with an absorption spectrophotometer at 340 nm. The assay system (3 ml.) contained: potassium phosphate buffer pH 7.0; 150 μmol.; NAD 1 μmol.; a given amount of enzyme preparation; and secondary alcohol 10 μmol. The reaction was started by the addition of substrate. One unit of enzyme activity represents the reduction of one μmole NAD per minute. Protein concentrations were determined by the Lowry method (J. Biol. Chem., 193: 255-275 (1951)).

[8] = tested on: purified secondary alcohol dehydrogenase (SADH); experiment: substrate specificity and Michaelis constants of purified SADH; type: biochemical, Pseudomonas sp. ATCC 21439
[9] = each inhibitor at a final concentration of 1 mM, measured spectrofluorometrically

CC(O)CO (stereo not shown) [1,2-propandiol]
oxidation by the purified yeast secondary alcohol dehydrogenase [1]: not oxidized

CCCCCC(C)O (stereo not shown) [2-heptanol]
rate of oxidation of secondary alcohols by strains of C1-utilizers ([2]; cell suspensions): much slower rate | oxidation by the purified yeast secondary alcohol dehydrogenase [1]: not oxidized

CCCCCCC(C)O (stereo not shown) [2-octanol]
oxidation by the purified yeast secondary alcohol dehydrogenase [1]: not oxidized

O=C(O)c1cc(SSc2ccc([N+](=O)[O-])c(C(=O)O)c2)ccc1[N+](=O)[O-] [5,5'-dithiobis(2-nitrobenzoic acid)]
inhibition of SADH activity [3]: inhibited | % inhibition of SADH activity [3, 9]: 100%

Oc1cccc2cccnc12 [8-hydroxyquinoline]
inhibition of conversion of n-alkanes to sec. alcohols (words) [4]: inhibited

[Co+2] [Co^++]
% inhibition of SADH activity [3, 9]: 0%

O=C(O)CN(CCN(CC(=O)O)CC(=O)O)CC(=O)O [EDTA]
% inhibition of SADH activity [3]: 63%

CC [Ethane]
Conversion Rate, product Ethanol [5]: 2.0 μmoles/hr./mg./protein | Conversion Rate, product Ethanol [6]: 1.3 μmoles/hr./mg./protein

Cc1cc2nc3c(=O)[nH]c(=O)nc-3n(C[C@H](O)[C@H](O)[C@H](O)COP(=O)(O)OP(=O)(O)OC[C@H]3O[C@@H](n4cnc5c(N)ncnc54)[C@H](O)[C@@H]3O)c2cc1C [FAD, flavin adenine dinucleotide, reference compound]
effectiveness as cofactor for oxidation of 2-butanol / C3-C6 secondary alcohols [7]: not effective | ability to act as electron acceptor/carrier for the purified enzyme [1]: could not act as electron carrier

C [Methane]
Conversion Rate, product Methanol ([5]; […] phosphate buffer): 2.5 μmoles/hr./mg./protein | Conversion Rate, product Methanol ([6]; […] phosphate buffer): 1.5 μmoles/hr./mg./protein

[Mg+2] [Mg^++]
% inhibition of SADH activity [3, 9]: 0%

[Mn+2] [Mn^++]
% inhibition of SADH activity [3, 9]: 0%

CCN1C(=O)C=CC1=O [N-ethylmalemide, N-ethylmaleimide]
inhibition of SADH activity [3]: not inhibited | % inhibition of SADH activity [3, 9]: 6%

NC(=O)C1=CN([C@@H]2O[C@H](COP(=O)(O)OP(=O)(O)OC[C@H]3O[C@@H](n4cnc5c(N)ncnc54)[C@H](OP(=O)(O)O)[C@@H]3O)[C@@H](O)[C@H]2O)C=CC1 [NAD(P)H]
effectiveness as cofactor for oxidation of 2-butanol / C3-C6 secondary alcohols [7]: not effective

NC(=O)C1=CN([C@@H]2O[C@H](COP(=O)(O)OP(=O)(O)OC[C@H]3O[C@@H](n4cnc5c(N)ncnc54)[C@H](O)[C@@H]3O)[C@@H](O)[C@H]2O)C=CC1 [NADH, reduced nicotinamide adenine dinucleotide]
use as electron donor for hydroxylation of n-alkanes [4]: requires

NC(=O)c1ccc[n+]([C@@H]2O[C@H](COP(=O)(O)OP(=O)(O)OC[C@H]3O[C@@H](n4cnc5c(N)ncnc54)[C@H](OP(=O)(O)O)[C@@H]3O)[C@@H](O)[C@H]2O)c1 [NADP, reference compound]
effectiveness as cofactor for oxidation of 2-butanol / C3-C6 secondary alcohols [7]: not effective | ability to act as electron acceptor/carrier for the purified enzyme [1]: could not act as electron carrier

NC(=O)C1=CN([C@@H]2O[C@H](COP(=O)(O)OP(=O)(O)OC[C@H]3O[C@@H](n4cnc5c(N)ncnc54)[C@H](OP(=O)(O)O)[C@@H]3O)[C@@H](O)[C@H]2O)C=CC1 [NADPH, reduced nicotinamide adenine dinucleotide phosphate]
use as electron donor for hydroxylation of n-alkanes [4]: could also be utilized as an electron donor

[N-]=[N+]=[N-] [Sodium azide]
% inhibition of SADH activity [3, 9]: 10%

NC(N)=S [Thiourea]
inhibition of production of 2-butanone from 2-butanol by cell suspensions [2]: not inhibited | inhibition of conversion of n-alkanes to sec. alcohols (words) [4]: inhibited | inhibition of SADH activity [3]: not inhibited | % inhibition of SADH activity [3, 9]: 0%

[Zn+2] [Zn^++]
stimulation of SADH activity ([3]; addition of exogenous zinc): did not stimulate | % inhibition of SADH activity [3, 9]: 0%

CC=O [acetaldehyde]
oxidation by purified SADH [8]: lower rate

O=Cc1ccccc1 [benzaldehyde]
oxidation by purified SADH [8]: not oxidized

CCCCO [butan-1-ol]
oxidation by the purified yeast secondary alcohol dehydrogenase [1]: not oxidized

CCC(O)CO (stereo not shown) [butane 1,2-diol]
oxidation by the purified yeast secondary alcohol dehydrogenase [1]: not oxidized | oxidation by purified SADH [8]: not oxidized

CC(O)CCO (stereo not shown) [butane 1,3-diol]
oxidation by the purified yeast secondary alcohol dehydrogenase [1]: not oxidized | oxidation by purified SADH [8]: lower rate

CC(O)C(C)O (stereo not shown) [butane 2,3-diol]
oxidation by purified SADH [8]: lower rate

[Cu+2] [cupric]
% inhibition of SADH activity [3, 9]: 25%

OC1CCCCC1 [cyclohexanol]
oxidation by purified SADH [8]: lower rate

O=C1C(Cl)=CC(=Nc2ccc(O)cc2)C=C1Cl [dichlorophenol indophenol, 2,6-dichlorophenol indophenol, reference compound]
effectiveness as cofactor for oxidation of 2-butanol / C3-C6 secondary alcohols [7]: not effective | ability to act as electron acceptor/carrier for the purified enzyme [1]: could not act as electron carrier

CCO [ethanol]
inhibition of SADH activity [3]: did not inhibit | oxidation by the purified yeast secondary alcohol dehydrogenase [1]: not oxidized

[Fe+3] [ferric]
% inhibition of SADH activity [3, 9]: 35%

[Fe+2] [ferrous]
% inhibition of SADH activity [3, 9]: 50%

C=O [formaldehyde]
oxidation by purified SADH [8]: not oxidized

O=C(O)CI [iodoacetic acid]
% inhibition of SADH activity [3]: 0% | inhibition of SADH activity [3]: not inhibited

CC(C)CO [isobutanol]
oxidation by purified SADH [8]: not oxidized

CO [methanol]
oxidation by the purified yeast secondary alcohol dehydrogenase [1]: not oxidized

CCCO [n-propanol]
inhibition of SADH activity [3]: did not inhibit | oxidation by the purified yeast secondary alcohol dehydrogenase [1]: not oxidized

[Ni+2] [nickel]
% inhibition of SADH activity [3, 9]: 20%

CCCCCO [pentan-1-ol]
oxidation by the purified yeast secondary alcohol dehydrogenase [1]: not oxidized

Oc1ccccc1 [phenol]
oxidation by purified SADH [8]: not oxidized

C=CC [propylene]
inhibition of conversion of n-alkanes to sec. alcohols (words) [4]: inhibited | inhibition of conversion of n-alkanes to sec. alcohols (words) ([4]; listed as Propylene): inhibit

CCC=O [ropanal]
oxidation by purified SADH [8]: lower rate | relative percent rate of oxidation by SADH ([8]; 2-butanol = 100%): 2%

O=C(O)CCC(=O)O [succinic acid]
oxidation by purified SADH [8]: not oxidized

NNC(N)=S [thiosemicarbazide]
inhibition of conversion of n-alkanes to sec. alcohols (words) [4]: inhibited

c1ccc(-c2ccccn2)nc1 [α,α-bipyridyl]
inhibition of production of 2-butanone from 2-butanol by cell suspensions [2]: inhibited | inhibition of conversion of n-alkanes to sec. alcohols (words) [4]: inhibited | % inhibition of SADH activity [3, 9]: 70%

cytochrome c [reference compound]
ability to act as electron acceptor/carrier for the purified enzyme [1]: could not act as electron carrier
